According to ChEMBL document CHEMBL2401692, “Synthesis, structure-activity relationships, and in vivo efficacy of the novel potent and selective anaplastic lymphoma kinase (ALK) inhibitor 5-chloro-N2-(2-isopropoxy-5-methyl-4-(piperidin-4-yl)phenyl)-N4-(2-(isopropylsulfonyl)phenyl)pyrimidine-2,4-diamine (LDK378) currently in phase 1 and phase …” (J Med Chem, 2013):

Experiments:
[1] = Toxicity in po dosed Rowett nude rat xenografted with human KARPAS299 cells; assay type: organism-based, KARPAS-299; details: in vivo
[2] = test system: NCI-H2228; assay: Antitumor activity against human NCI-H2228 cells xenografted in Rowett nude rat assessed as complete tumor regression at 25 mg/kg, po for 14 days measured 7 to 72 hrs post dosing relative to control; assay type: functional
[3] = test system: KARPAS-299; assay: Antitumor activity against human KARPAS299 cells xenografted in Rowett nude rat assessed as tumor regression at 25 mg/kg, po for 14 days measured 7 to 72 hrs post dosing relative to control; assay type: functional
[4] = test system: KARPAS-299; assay: Antitumor activity against human KARPAS299 cells xenografted in Rowett nude rat assessed as tumor growth inhibition factor at 6.25 mg/kg, po for 14 days measured 7 to 72 hrs post dosing relative to control; assay type: functional
[5] = Tmax in cynomolgus monkey at 60 mg/kg, po; assay type: ADME, organism-based, Macaca fascicularis; design: dose 60 mg/kg, route oral; details: in vivo
[6] = AUC in cynomolgus monkey at 60 mg/kg, po; assay type: ADME, organism-based, Macaca fascicularis; design: dose 60 mg/kg, route oral; details: plasma
[7] = Cmax in cynomolgus monkey at 60 mg/kg, po; assay type: ADME, organism-based, Macaca fascicularis; design: dose 60 mg/kg, route oral; details: in vivo
[8] = Cmax in cynomolgus monkey at 5 mg/kg, iv; assay type: ADME, organism-based, Macaca fascicularis; design: dose 5 mg/kg, route intravenous; details: in vivo
[9] = AUC in cynomolgus monkey at 5 mg/kg, iv; assay type: ADME, organism-based, Macaca fascicularis; design: dose 5 mg/kg, route intravenous; details: plasma
[10] = Cmax in Beagle dog at 20 mg/kg, po; assay type: ADME, organism-based, Canis lupus familiaris; design: dose 20 mg/kg, route oral; details: in vivo
[11] = AUC in Beagle dog at 20 mg/kg, po; assay type: ADME, organism-based, Canis lupus familiaris; design: dose 20 mg/kg, route oral; details: plasma
[12] = Cmax in Beagle dog at 5 mg/kg, iv; assay type: ADME, organism-based, Canis lupus familiaris; design: dose 5 mg/kg, route intravenous; details: in vivo
[13] = Volume of distribution at steady state in Beagle dog at 5 mg/kg, iv; assay type: ADME, organism-based, Canis lupus familiaris; design: dose 5 mg/kg, route intravenous; details: in vivo, read-out: Vdss
[14] = AUC in Beagle dog at 5 mg/kg, iv; assay type: ADME, organism-based, Canis lupus familiaris; design: dose 5 mg/kg, route intravenous; details: plasma
[15] = Tmax in Sprague-Dawley rat at 3 mg/kg, iv; assay type: ADME, organism-based; design: dose 3 mg/kg, route intravenous; details: in vivo
[16] = Volume of distribution at steady state in Sprague-Dawley rat at 3 mg/kg, iv; assay type: ADME, organism-based; design: dose 3 mg/kg, route intravenous; details: in vivo, read-out: Vdss
[17] = AUC in Sprague-Dawley rat at 3 mg/kg, iv; assay type: ADME, organism-based; design: dose 3 mg/kg, route intravenous; details: plasma
[18] = Oral bioavailability in BALB/c mouse at 20 mg/kg; assay type: ADME, organism-based; details: in vivo
[19] = AUC in BALB/c mouse at 20 mg/kg, po; assay type: ADME, organism-based; design: dose 20 mg/kg, route oral; details: plasma
[20] = Volume of distribution at steady state in BALB/c mouse at 5 mg/kg, iv; assay type: ADME, organism-based; design: dose 5 mg/kg, route intravenous; details: in vivo, read-out: Vdss
[21] = Plasma clearance in BALB/c mouse at 5 mg/kg, iv; assay type: ADME, organism-based; design: dose 5 mg/kg, route intravenous
[22] = target: High affinity nerve growth factor receptor (Homo sapiens, UniProt P04629); assay: Inhibition of TEL-fused TRKA (unknown origin) by cell-based assay
[23] = target: T1, Hepatocyte growth factor receptor (Homo sapiens, UniProt P08581); assay: Inhibition of TEL-fused MET (unknown origin) by cell-based assay
[24] = target: T2, Tyrosine-protein kinase Lck (Homo sapiens, UniProt P06239); assay: Inhibition of TEL-fused LCK (unknown origin) by cell-based assay
[25] = target: Tyrosine-protein kinase Lyn (Homo sapiens, UniProt P07948); assay: Inhibition of TEL-fused LYN (unknown origin) by cell-based assay
[26] = target: Tyrosine-protein kinase JAK2 (Homo sapiens, UniProt O60674); assay: Inhibition of TEL-fused JAK2 (unknown origin) by cell-based assay
[27] = target: Fibroblast growth factor receptor 3 (Homo sapiens, UniProt P22607); assay: Inhibition of TEL-fused FGFR3 (unknown origin) by cell-based assay
[28] = target: Testis-specific serine/threonine-protein kinase 1 (Homo sapiens, UniProt Q9BXA7); assay: Inhibition of STK22D (unknown origin) after 60 mins
[29] = target: Rho-associated protein kinase 2 (Homo sapiens, UniProt O75116); assay: Inhibition of ROCK2 (unknown origin) after 60 mins
[30] = target: Platelet-derived growth factor receptor alpha (Homo sapiens, UniProt P16234); assay: Inhibition of PDGFRalpha (unknown origin) after 60 mins
[31] = target: T2, Tyrosine-protein kinase Lck; assay: Inhibition of LCK (unknown origin) after 60 mins
[32] = target: Fibroblast growth factor receptor 4 (Homo sapiens, UniProt P22455); assay: Inhibition of FGFR4 (unknown origin) after 60 mins
[33] = target: Fibroblast growth factor receptor 2 (Homo sapiens, UniProt P21802); assay: Inhibition of FGFR2 (unknown origin) after 60 mins
[34] = target: Cyclin-dependent kinase 2 (Homo sapiens, UniProt P24941); assay: Inhibition of CDK2 (unknown origin) after 60 mins
[35] = Inhibition of Aurora kinase (unknown origin) after 60 mins; design: species or system Homo sapiens
[36] = test system: Rhesus monkey; assay: Cardiotoxicity in monkey assessed as QTc prolongation; assay type: toxicity, organism-based, Macaca mulatta; details: in vivo
[37] = target: Tyrosine-protein kinase ABL1 (Homo sapiens, UniProt P00519); assay: Inhibition of ABL (unknown origin) after 60 mins
[38] = species: Canis familiaris; assay: Cardiotoxicity in dog assessed as QTc prolongation; assay type: toxicity, organism-based, Canis lupus familiaris; details: in vivo
[39] = target: Cytochrome P450 3A4 (Homo sapiens, UniProt P08684); assay: Inhibition of CYP3A4 in human liver microsomes using midazolam as substrate by LC-MS/MS analysis; assay type: ADME, Microsome
[40] = Intrinsic clearance in human liver microsomes; assay type: ADME, Microsome; details: read-out: CLH
[41] = Intrinsic clearance in mouse liver microsomes; assay type: ADME, Microsome; details: read-out: CLH
[42] = target: T1, Hepatocyte growth factor receptor
Target sequence in this assay (P08581 whole entry, the tested form may be a part): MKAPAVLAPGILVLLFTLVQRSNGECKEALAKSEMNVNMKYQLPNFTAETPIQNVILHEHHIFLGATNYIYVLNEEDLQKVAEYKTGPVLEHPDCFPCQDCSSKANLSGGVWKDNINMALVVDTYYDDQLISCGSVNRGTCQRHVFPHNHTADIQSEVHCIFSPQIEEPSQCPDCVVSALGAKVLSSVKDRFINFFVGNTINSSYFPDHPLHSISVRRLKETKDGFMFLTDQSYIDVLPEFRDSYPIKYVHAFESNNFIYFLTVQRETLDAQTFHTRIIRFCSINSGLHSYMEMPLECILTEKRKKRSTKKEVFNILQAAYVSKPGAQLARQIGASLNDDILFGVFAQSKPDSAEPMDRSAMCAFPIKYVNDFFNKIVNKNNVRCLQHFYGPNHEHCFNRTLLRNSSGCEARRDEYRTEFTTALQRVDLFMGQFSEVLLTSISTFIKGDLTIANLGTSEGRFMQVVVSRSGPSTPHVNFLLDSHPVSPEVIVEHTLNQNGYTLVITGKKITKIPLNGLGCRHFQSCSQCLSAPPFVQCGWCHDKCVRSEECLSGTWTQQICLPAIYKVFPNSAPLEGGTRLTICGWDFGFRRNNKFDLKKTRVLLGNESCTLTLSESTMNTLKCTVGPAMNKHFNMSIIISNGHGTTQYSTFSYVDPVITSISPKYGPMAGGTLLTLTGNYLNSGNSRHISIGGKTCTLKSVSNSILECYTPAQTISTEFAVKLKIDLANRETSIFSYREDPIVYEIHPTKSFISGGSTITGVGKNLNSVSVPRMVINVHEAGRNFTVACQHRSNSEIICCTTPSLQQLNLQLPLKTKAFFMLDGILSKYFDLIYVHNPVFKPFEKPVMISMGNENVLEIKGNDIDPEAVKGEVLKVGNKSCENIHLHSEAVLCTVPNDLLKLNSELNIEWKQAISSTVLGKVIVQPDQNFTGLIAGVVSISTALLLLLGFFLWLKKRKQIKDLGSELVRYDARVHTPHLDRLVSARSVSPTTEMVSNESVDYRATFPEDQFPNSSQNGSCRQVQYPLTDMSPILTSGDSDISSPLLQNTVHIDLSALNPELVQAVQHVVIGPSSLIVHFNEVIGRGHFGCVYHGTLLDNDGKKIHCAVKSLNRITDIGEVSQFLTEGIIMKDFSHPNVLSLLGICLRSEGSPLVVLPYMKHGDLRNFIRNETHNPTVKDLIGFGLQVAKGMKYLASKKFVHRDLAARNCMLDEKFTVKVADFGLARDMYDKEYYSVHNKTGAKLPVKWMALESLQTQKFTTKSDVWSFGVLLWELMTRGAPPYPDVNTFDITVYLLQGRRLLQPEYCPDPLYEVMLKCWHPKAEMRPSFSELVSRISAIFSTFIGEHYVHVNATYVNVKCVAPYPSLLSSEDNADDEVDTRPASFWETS
Description: Inhibition of cMET (unknown origin) after 60 mins

[43] = test system: NCI-H2228; details: Homo sapiens
Description: Antitumor activity against human NCI-H2228 cells xenografted in po dosed Rowett nude rat assessed as tumor growth inhibition administered for 14 days measured 7 to 72 hrs post dosing

[44] = test system: KARPAS-299; details: Homo sapiens
Description: Antitumor activity against human KARPAS299 cells xenografted in po dosed Rowett nude rat assessed as tumor growth inhibition administered for 14 days measured 7 to 72 hrs post dosing

[45] = test system: BaF3; assay: cells; details: Mus musculus
[46] = in vivo; details: Sprague-Dawley, rat, iv, 3 mg/kg

T2 sequence (P06239 whole entry, the tested form may be a part): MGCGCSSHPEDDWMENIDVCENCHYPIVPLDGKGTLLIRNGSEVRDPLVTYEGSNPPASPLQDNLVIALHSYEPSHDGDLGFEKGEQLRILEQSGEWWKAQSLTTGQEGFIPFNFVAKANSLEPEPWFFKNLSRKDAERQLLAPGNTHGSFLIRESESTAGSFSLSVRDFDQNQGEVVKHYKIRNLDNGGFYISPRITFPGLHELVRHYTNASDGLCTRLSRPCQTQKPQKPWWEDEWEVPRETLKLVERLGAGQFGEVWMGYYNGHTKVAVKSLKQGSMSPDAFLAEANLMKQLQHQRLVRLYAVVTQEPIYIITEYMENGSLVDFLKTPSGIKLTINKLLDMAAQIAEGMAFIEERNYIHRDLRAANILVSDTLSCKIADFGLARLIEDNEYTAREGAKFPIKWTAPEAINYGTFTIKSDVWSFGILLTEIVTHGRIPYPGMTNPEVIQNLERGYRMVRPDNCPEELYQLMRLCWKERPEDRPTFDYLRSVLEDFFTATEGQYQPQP
Chain of Tyrosine-protein kinase JAK2 (O60674 whole entry, looked up, the tested form may be a part): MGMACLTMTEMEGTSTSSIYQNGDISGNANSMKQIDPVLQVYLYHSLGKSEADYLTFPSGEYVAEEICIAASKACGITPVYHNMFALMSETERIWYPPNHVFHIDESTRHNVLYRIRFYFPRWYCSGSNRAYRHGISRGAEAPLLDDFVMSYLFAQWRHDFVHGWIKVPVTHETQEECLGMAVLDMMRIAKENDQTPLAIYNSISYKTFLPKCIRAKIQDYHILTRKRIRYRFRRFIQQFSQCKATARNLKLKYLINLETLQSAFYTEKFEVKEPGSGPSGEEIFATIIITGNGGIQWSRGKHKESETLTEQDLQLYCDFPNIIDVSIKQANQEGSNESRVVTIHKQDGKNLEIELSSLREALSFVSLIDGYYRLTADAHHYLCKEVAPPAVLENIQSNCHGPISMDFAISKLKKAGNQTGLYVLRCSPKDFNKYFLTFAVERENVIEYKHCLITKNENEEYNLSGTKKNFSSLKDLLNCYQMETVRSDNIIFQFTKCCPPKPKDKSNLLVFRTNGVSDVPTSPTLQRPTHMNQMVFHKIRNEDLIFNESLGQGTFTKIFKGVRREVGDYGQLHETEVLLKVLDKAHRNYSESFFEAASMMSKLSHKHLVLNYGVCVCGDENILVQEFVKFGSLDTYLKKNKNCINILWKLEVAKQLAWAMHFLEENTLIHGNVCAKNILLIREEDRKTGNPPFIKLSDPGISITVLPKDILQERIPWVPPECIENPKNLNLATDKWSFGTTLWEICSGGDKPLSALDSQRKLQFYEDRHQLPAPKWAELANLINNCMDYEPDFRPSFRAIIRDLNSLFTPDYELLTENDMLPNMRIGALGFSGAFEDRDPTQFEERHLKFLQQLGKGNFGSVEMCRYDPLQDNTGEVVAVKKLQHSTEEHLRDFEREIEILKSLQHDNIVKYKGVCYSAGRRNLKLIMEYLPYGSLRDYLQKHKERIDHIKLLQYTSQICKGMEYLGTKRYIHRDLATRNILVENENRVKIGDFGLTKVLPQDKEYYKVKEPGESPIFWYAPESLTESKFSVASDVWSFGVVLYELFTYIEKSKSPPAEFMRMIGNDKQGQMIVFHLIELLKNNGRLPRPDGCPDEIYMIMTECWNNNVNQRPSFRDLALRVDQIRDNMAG
Chain of Rho-associated protein kinase 2 (O75116 whole entry): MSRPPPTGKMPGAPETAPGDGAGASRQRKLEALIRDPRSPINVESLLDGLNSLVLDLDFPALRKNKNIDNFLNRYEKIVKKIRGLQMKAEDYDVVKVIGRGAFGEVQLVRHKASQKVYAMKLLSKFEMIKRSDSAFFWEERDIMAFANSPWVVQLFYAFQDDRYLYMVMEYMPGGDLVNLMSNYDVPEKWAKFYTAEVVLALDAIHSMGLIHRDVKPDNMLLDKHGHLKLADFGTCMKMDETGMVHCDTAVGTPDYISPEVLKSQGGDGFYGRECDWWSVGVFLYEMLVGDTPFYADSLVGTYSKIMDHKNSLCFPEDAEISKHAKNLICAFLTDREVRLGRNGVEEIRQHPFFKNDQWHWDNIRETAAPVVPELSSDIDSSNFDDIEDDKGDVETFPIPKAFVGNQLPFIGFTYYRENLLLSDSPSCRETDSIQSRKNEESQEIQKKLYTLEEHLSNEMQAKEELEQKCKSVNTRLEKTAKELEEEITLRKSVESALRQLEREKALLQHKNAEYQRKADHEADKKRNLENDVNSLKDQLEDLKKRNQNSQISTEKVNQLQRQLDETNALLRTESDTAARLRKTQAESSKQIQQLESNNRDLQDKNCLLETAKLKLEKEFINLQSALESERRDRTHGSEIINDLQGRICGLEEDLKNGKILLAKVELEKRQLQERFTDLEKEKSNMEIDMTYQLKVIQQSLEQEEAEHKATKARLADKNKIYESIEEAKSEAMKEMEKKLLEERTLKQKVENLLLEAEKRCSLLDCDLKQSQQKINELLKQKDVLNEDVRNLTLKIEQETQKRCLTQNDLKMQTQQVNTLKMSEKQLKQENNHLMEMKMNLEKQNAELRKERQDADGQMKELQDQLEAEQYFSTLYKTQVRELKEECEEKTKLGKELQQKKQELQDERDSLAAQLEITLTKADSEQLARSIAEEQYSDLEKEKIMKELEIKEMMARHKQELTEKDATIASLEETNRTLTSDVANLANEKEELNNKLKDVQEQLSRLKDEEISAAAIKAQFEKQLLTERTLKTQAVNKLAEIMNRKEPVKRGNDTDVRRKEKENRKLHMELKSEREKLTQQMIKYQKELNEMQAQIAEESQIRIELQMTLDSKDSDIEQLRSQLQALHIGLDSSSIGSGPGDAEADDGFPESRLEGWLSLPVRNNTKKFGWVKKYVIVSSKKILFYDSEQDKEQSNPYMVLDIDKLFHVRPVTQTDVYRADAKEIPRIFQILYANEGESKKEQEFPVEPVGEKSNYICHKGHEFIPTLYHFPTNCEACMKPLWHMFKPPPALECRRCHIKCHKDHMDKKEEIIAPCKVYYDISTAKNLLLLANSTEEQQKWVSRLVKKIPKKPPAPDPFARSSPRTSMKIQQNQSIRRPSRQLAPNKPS
Chain of Cytochrome P450 3A4 (P08684 whole entry): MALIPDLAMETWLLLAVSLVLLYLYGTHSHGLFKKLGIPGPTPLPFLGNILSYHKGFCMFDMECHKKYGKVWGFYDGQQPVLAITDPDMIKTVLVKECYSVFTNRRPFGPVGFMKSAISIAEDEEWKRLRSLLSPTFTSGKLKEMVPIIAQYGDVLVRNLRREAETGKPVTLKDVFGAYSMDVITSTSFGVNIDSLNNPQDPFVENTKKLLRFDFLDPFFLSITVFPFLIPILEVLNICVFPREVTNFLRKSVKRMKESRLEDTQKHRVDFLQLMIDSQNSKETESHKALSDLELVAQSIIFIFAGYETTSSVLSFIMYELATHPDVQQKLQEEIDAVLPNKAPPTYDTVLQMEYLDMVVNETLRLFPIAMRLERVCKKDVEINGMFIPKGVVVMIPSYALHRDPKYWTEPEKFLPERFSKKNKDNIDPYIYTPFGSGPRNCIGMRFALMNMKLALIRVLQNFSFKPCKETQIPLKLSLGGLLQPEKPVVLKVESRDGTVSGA

## Cc1cc(Nc2ncc(Cl)c(Nc3ccccc3S(=O)(=O)C(C)C)n2)c(OC(C)C)cc1C1CCNCC1 [CERITINIB]
[1]
  MTD: 6.25 mg/kg
[2]
  T/C: -100%
[3]
  T/C: -33%
[4]
  T/C: 74%
[5]
  Tmax: 13 h
[6]
  AUC: 76.3 µM·h
[7]
  Cmax: 1700 nM
[8]
  Cmax: 2530 nM
[9]
  AUC: 11.3 µM·h
[10]
  Cmax: 1900 nM
[11]
  AUC: 67.9 µM·h
[12]
  Cmax: 2330 nM
[13]
  Vd: 13.5 L/kg
[14]
  AUC: 18.1 µM·h
[15]
  Tmax: 1.8 min
[16]
  Vd: 21.2 L/kg
[17]
  AUC: 2.78 µM·h
[18]
  bioavailability: 55%
[19]
  AUC: 12.3 µM·h
[20]
  Vd: 9.7 L/kg
[21]
  clearance: 26.6 mL/min/kg
[22]
  IC50: 2730 nM
[23]
  IC50: 1340 nM
[24]
  IC50: 672 nM
[25]
  IC50: 2310 nM
[26]
  IC50: 2160 nM
[27]
  IC50: > 10000 nM
[28]
  IC50: 23 nM
[29]
  IC50: 1270 nM
[30]
  IC50: 1140 nM
[31]
  IC50: 560 nM
[32]
  IC50: 950 nM
[33]
  IC50: 260 nM
[34]
  IC50: 3970 nM
[35]
  IC50: 660 nM
[36]
  Activity: Non-toxic
[37]
  IC50: 1250 nM
[38]
  Activity: Non-toxic
[39]
  INH: 1.5 µM
[40]
  microsomal CLint: 19 µL/min/mg
[41]
  microsomal CLint: 15 µL/min/mg
[42]
  IC50: 3170 nM
[43]
  TGI: Dose-dependent effect
[44]
  TGI: Dose-dependent effect
[45]
  IC50: 2480 nM
[46]
  Cmax: 770 nM
